Tested on: human adipocytes
Assay: release of Not Esterified Fatty Acids (NEFA) by human adipocytes in suspension (ex-vivo lipolysis)
Assay type: cell-based
Settings: for NEFA: human adipocytes, 2 hours at 37° C., n=3; for % of the control: NEFA released, 2 hours
Protocol: This experiment has been conducted on human adipocytes isolated from an abdominal plasty of a donor. […] To 540 uL of a suspension of adipocytes in a test medium milieu have been added 60 μL of compound to be tested, and the mixtures have been incubated at 37° C., under stirring, for 2 hours. A final concentration of theophylline in the tested mixture of 1 mM was maintained, starting from a stock solution of 10^−2 M in test medium. Likewise, a final concentration of isoproterenol in the tested mixture of 1 μM was maintained, starting from a stock solution of […] in test medium. A final concentration of caffeine in the tested mixture of 0.5 mM was also maintained, starting from a stock solution of 5 mM in test medium. […] Since the composition according to the invention is a powder, it was diluted in DMSO, on the one hand, and in test medium, on the other hand. The stock solution prepared with DMSO was prepared at 10 mg/mL, i.e. 1% (w/v), for a final concentration of the composition according to the invention in solution in DMSO in the tested mixture of 0.01%. […] A control comprising only the adipocytes in test medium was also prepared. A total of 10 doses were prepared from 10 different fractions with the compound added or not. […] The dose was prepared conventionally by means of a NEFA-C measuring kit. The measured data were processed statistically. Intergroup comparisons were carried out through variance analysis (ANOVA) by means of the Dunnet multiple comparison test.

In the case of Cn1c(=O)c2[nH]cnc2n(C)c1=O [Theophylline, theophylline], the NEFA (1.0 mM) is reported as 381 µM, the “lipolysis stimulation, factor with respect to the control” value (1 mM, p<0.01) is reported as 10 and the “% of the control” value (1.0 mM) is reported as 1057%.
For Cn1c(=O)c2c(ncn2C)n(C)c1=O [Caffeine, caffeine], the NEFA (0.5 mM) was 339 µM, the “release of NEFA, factor with respect to the control” value (0.5 mM, p<0.01) was “about 9.5” and the “% of the control” value (0.5 mM) was 941%.
CC(C)NCC(O)c1ccc(O)c(O)c1 (stereo not drawn) [Isoproterenol, isoproterenol] was tested, and the NEFA (1.0 μM) was 377 µM, the “lipolysis stimulation, factor with respect to the control” value (1 μM, p<0.01) was 10 and the “% of the control” value (1.0 μM) was 1048%.

Reference: US20100166851A1, “Composition having lipolytic activity, production method thereof and use of the composition” (NUTRACEUTIC ET BUSINESS CONSULTING, priority 2007, published 2010)
